Literature values, collected in PMC6966182 (CPT: Pharmacometrics & Systems Pharmacology, 2019).
Read-outs that look alike come from different tables or passages of the source. Values belong to the molecule of their own block, whether it stands above or below them.

Key:
[1] = test system: OAT3; conditions: read-out: OAT3 Transporter (K i) (renal); SimCYP input
[2] = test system: PBMC; conditions: SimCYP input
[3] = not given; remark: listed apart in the source
[4] = not given; remark: listed apart in the source
[5] = absorption rate constant, SimCYP input
[6] = not given; remark: listed apart in the source
[7] = not given; remark: listed apart in the source
[8] = test system: HIV; conditions: TFV‐DP concentration in PBMC
[9] = SD TFV + PRO, healthy volunteers, GM (95% confidence interval)
[10] = SD TFV–PRO, healthy volunteers, GM (95% confidence interval)

SMILES: CCCN(CCC)S(=O)(=O)c1ccc(C(=O)O)cc1 [PRO, probenecid]
maximum tolerated dose: 2 g

Efflux Clint,t (PBMC additional organ) [2]: 1.288 µL/minute11, 12
AUC0‐INF OBS [3, 9]: 6,349 (5,598–7,200) ng • hour/mL
Cmax OBS [3, 9]: 538 (494–585) ng/mL
AUC0‐INF OBS [3, 10]: 3,973 (3,576–4,415) ng • hour/mL
CLr OBS [3, 10]: 15.4 (12.2–19.4) L/hour
Cmax OBS [3, 10]: 529 (451–620) ng/mL
increase in single‐dose TFV overall plasma exposure (AUC0‐INF) ([3]; in the presence of 2 g PRO, fasted healthy volunteers, as predicted): 60%
change in TFV Cmax ([3]; in the presence of 2 g PRO, single dose, as predicted): nearly unchanged
fraction unbound (f u) [4]: > 0.9
k a [5]: 1.03 1/h11
TFV in circulation available for transporter‐mediated secretion [6]: 20–30%
bioavailability [6]: ~ 25%
increase in TFV systemic exposure with food ([6]; TDF given with high‐fat or light meals, ref Other studies): ~ 35%
SMILES: C[C@H](Cn1cnc2c(N)ncnc21)OCP(=O)(O)O [TFV, tenofovir]
Uptake J max (PBMC additional organ) [2]: 10.44 pmol/minute/whole organ11, 12
Uptake K m (PBMC additional organ) [2]: 0.355 µM11, 12

increase at the intracellular level with PRO ([7]; at 24 hours): ~ 30%
accumulation of TFV‐DP in PBMCs ([7]; daily TDF administration): greater than eightfold
EC90 [8]: 16 fmol/10^6 cells
SMILES: CC(Cn1cnc2c(N)ncnc21)OCP(=O)(O)OP(=O)(O)OP(=O)(O)O (stereo in doubt) [TFV‐DP, tenofovir di‐phosphate]
